Molecular target: T1, Caspase-3 (Homo sapiens, UniProt P42574)
T1 sequence (P42574 whole entry): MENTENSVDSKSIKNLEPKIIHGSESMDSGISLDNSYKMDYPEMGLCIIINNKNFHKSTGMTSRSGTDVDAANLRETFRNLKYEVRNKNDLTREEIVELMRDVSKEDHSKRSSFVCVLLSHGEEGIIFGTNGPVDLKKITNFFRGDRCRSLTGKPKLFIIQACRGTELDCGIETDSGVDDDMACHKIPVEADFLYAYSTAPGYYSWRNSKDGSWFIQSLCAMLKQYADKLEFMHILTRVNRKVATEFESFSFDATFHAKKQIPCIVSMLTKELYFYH
Assay: Inhibition of caspase 3 using Ac-DEVD-AFC fluorogenic substrate

Row | Structure (SMILES) | IC50 [nM]
1 | O=C1Nc2ccc([N+](=O)[O-])cc2C1=O [5-NITROISATIN] | 1000
2 | O=C1C(=O)N(Cc2cn(CCF)nn2)c2ccc(S(=O)(=O)N3CCC[C@H]3COc3ccccc3)cc21 | 16.7
3 | O=C1C(=O)N(Cc2cn(CCF)nn2)c2ccc(S(=O)(=O)N3CCC[C@H]3COc3ccc(F)cc3F)cc21 | 0.5

From ChEMBL document CHEMBL1681737, “Isatin 1,2,3-triazoles as potent inhibitors against caspase-3” (Bioorg Med Chem Lett, 2011)
